Experimental data taken from patent EP3130589A1, “HETEROCYCLIC AZA COMPOUNDS” (Grünenthal GmbH, priority 2015, dated 2017).

Biological target: T1, TRPV1 human (Homo sapiens, UniProt Q8NER1)
T1 construct: expressed in transfected cells; host or cells: CHO K1 cells
Test: Functional testing on the vanilloid receptor 1 (VR1/TRPV1): FLIPR Ca2+ influx assay, inhibition of capsaicin (CAP) stimulation
Format: cell-based
Conditions: ne = did not show any effect in this assay; pAG = partial agonist
Method: Furthermore, preference may be given to compounds according to the invention that cause a 50 per cent displacement of capsaicin, which is present at a concentration of 100 nM, in a FLIPR assay with CHO K1 cells which were transfected with the human VR1 gene at a concentration of less than 6,000 nM, preferably less than 5,000 nM, more preferably less that 3,000 nM or less than 1,000 nM and particularly preferably less than 300 nM, most particularly preferably less than 100 nM, even more preferably less than 75 nM, additionally preferably less than 50 nM, most preferably less than 10 nM.
In the process, the Ca^2+ influx is quantified in the FLIPR assay with the aid of a Ca^2+-sensitive dye (type Fluo-4, Molecular Probes Europe BV, Leiden, the Netherlands) in a fluorescent imaging plate reader (FLIPR, Molecular Devices, Sunnyvale, USA), as described hereinafter.
Functional testing carried out on the vanilloid receptor 1 (VRI/TRPV1 receptor) […]
The number of cells in the suspension is set to 3 x 10^5 per mL and 150 µL of this suspension are in each case introduced into a recess in the cell culture plates coated as described hereinbefore. In the incubator the plates are left for two to three days at 37°C, 5 vol.-% of CO2 and 95 % relative humidity. Subsequently, the cells are loaded with 2 µM of Fluo-4 and 0.01 vol.-% of Pluronic F127 (Molecular Probes Europe BV, Leiden, the Netherlands) in HBSS buffer for 30 min at 37°C, washed 3 times with HBSS buffer and after further incubation for 15 min at RT used for Ca^2+ measurement in a FLIPR assay. The Ca^2+-dependent fluorescence is in this case measured before and after the addition of substances (λex = 488 nm, λem = 540 nm). Quantification is carried out by measuring the highest fluorescence intensity (FC, fluorescence counts) over time.
The FLIPR protocol consists of 2 substance additions. First the compounds to be tested (10 µM) are pipetted onto the cells and the Ca^2+ influx is compared with the control (capsaicin 10 µM). This provides the result in % activation based on the Ca^2+ signal after the addition of 10 µM of capsaicin (CP). After 5 min incubation, 100 nM of capsaicin are applied and the Ca^2+ influx is also determined. Desensitising agonists and antagonists lead to suppression of the Ca^2+ influx. The % inhibition is calculated compared to the maximum achievable inhibition with 10 µM of capsazepine.
Triple analyses (n=3) are carried out and repeated in at least 3 independent experiments (N=4). Starting from the percentage displacement caused by different concentrations of the compounds to be tested of general formula I, IC50 inhibitory concentrations which cause a 50% displacement of capsaicin were calculated.
Ki values for the test substances were obtained by conversion by means of the Cheng-Prusoff equation (Cheng, Prusoff; Biochem. Pharmacol. 22, 3099-3108, 1973).

T1 sequence (Q8NER1 whole entry): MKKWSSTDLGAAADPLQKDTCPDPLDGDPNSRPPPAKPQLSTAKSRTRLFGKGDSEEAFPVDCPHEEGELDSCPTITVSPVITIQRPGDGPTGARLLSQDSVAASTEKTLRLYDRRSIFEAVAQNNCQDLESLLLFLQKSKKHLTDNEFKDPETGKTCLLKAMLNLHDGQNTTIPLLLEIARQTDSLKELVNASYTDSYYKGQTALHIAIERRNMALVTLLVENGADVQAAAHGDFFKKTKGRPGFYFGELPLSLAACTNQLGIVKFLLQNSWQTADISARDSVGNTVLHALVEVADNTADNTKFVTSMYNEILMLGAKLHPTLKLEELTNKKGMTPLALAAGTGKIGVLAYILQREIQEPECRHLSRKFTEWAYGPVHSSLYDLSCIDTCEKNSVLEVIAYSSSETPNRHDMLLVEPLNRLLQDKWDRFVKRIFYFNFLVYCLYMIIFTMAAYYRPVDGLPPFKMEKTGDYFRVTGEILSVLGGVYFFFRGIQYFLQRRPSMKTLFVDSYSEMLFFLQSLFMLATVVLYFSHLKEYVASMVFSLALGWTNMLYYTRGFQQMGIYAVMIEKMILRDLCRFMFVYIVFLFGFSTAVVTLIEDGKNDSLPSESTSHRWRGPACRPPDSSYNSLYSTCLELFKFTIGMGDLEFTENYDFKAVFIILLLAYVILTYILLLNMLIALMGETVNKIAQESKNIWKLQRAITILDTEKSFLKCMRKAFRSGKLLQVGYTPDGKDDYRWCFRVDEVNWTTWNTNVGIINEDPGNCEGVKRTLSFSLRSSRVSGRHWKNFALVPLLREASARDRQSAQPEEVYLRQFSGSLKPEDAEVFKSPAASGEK

CC1CCN(c2nc(C(F)(F)F)ccc2CNC(=O)Nc2nc3ccccc3[nH]2)CC1 [example compound 26, 1-(1H-benzo[d]imidazol-2-yl)-3-((2-(4-methylpiperidin-1-yl)-6-(trifluoromethyl)pyridin-3-yl)methyl)urea]
TRPV1 human (f) CAP, result in words: ne
